Key:
[1] = biological target: T1, Matrilysin (Homo sapiens, UniProt P09237); experiment: Inhibition of MMP7
T1 sequence (P09237 whole entry): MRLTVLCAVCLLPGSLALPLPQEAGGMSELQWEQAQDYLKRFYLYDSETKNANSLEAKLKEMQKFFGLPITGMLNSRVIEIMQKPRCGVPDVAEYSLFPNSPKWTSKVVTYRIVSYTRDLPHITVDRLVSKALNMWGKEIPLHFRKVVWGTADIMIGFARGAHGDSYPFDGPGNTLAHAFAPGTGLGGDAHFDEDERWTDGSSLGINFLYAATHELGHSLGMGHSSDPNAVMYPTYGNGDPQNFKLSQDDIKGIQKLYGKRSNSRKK

[2] = biological target: Collagenase 3 (Homo sapiens, UniProt P45452); experiment: Inhibition of MMP13
[3] = system: Blood; experiment: Inhibition of LPS-stimulated TNFalpha production in human whole blood; assay type: functional, tissue-based
[4] = organism: Homo sapiens; experiment: Inhibition of aggrecanase at 1 uM
[5] = biological target: 72 kDa type IV collagenase (Homo sapiens, UniProt P08253); experiment: Inhibition of MMP2
[6] = biological target: Macrophage metalloelastase (Homo sapiens, UniProt P39900); experiment: Inhibition of MMP12
[7] = biological target: Disintegrin and metalloproteinase domain-containing protein 17 (Sus scrofa, UniProt O77636); experiment: Inhibition of porcine TACE
[8] = biological target: Stromelysin-1 (Homo sapiens, UniProt P08254); experiment: Inhibition of MMP3
[9] = biological target: T2, Interstitial collagenase (Homo sapiens, UniProt P03956); experiment: Inhibition of MMP1
T2 sequence (P03956 whole entry): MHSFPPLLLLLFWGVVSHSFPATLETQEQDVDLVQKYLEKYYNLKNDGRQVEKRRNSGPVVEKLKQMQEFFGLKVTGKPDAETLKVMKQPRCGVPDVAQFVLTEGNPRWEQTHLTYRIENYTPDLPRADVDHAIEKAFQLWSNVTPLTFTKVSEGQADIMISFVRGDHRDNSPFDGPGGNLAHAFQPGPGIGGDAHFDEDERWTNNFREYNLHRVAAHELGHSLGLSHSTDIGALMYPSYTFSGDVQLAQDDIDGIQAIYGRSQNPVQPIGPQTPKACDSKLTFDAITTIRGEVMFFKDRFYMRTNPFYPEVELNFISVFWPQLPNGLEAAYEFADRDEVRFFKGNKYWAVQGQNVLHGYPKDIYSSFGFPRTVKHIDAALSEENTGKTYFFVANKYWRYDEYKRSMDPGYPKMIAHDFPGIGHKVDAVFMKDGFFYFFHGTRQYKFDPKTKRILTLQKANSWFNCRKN

[10] = biological target: Matrix metalloproteinase-9 (Homo sapiens, UniProt P14780); experiment: Inhibition of MMP9
Chain of Matrix metalloproteinase-9 (P14780 whole entry): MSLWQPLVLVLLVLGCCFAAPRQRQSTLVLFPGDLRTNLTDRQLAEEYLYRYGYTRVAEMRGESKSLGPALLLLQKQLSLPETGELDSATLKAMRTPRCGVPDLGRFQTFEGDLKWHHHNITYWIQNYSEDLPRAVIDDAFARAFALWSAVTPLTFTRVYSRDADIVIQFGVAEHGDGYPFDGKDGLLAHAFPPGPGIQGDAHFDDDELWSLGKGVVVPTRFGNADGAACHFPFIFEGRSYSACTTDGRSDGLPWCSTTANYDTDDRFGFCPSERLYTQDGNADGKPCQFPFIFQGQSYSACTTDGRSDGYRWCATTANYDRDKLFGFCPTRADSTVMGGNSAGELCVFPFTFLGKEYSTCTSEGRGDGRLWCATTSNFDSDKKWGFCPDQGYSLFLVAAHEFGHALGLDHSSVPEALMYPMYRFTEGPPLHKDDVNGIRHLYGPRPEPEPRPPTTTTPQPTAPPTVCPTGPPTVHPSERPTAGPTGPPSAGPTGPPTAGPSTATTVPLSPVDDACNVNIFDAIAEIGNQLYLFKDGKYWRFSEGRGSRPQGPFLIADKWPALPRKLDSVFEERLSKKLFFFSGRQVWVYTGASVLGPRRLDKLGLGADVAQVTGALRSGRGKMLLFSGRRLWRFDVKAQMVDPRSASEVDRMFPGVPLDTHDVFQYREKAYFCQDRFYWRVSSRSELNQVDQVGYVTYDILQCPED

Chain of Macrophage metalloelastase (P39900 whole entry, the tested form may be a part): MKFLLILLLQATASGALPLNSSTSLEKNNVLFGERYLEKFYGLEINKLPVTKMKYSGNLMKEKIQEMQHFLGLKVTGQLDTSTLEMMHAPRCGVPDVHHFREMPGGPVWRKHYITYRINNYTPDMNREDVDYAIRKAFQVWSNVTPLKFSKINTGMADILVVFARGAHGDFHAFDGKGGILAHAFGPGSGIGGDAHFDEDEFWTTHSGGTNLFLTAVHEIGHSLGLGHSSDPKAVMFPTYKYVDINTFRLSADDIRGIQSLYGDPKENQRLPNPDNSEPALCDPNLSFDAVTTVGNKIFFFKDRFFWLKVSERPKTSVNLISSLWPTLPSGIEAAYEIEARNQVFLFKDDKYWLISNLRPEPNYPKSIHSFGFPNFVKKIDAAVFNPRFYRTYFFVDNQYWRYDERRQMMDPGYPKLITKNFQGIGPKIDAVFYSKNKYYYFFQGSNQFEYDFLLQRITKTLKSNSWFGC
Chain of Stromelysin-1 (P08254 whole entry): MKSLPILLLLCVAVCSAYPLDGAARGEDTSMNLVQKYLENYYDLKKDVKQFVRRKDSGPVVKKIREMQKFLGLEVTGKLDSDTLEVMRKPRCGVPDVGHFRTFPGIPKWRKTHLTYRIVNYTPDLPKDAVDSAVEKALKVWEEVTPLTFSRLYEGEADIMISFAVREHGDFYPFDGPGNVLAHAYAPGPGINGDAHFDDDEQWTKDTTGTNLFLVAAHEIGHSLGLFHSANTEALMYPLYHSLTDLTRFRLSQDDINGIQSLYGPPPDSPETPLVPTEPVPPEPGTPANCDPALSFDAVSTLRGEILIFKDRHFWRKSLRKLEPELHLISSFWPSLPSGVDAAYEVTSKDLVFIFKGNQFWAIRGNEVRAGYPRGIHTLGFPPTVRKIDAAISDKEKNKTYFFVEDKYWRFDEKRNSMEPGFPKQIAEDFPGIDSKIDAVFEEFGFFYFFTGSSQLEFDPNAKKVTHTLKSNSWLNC
Chain of 72 kDa type IV collagenase (P08253 whole entry): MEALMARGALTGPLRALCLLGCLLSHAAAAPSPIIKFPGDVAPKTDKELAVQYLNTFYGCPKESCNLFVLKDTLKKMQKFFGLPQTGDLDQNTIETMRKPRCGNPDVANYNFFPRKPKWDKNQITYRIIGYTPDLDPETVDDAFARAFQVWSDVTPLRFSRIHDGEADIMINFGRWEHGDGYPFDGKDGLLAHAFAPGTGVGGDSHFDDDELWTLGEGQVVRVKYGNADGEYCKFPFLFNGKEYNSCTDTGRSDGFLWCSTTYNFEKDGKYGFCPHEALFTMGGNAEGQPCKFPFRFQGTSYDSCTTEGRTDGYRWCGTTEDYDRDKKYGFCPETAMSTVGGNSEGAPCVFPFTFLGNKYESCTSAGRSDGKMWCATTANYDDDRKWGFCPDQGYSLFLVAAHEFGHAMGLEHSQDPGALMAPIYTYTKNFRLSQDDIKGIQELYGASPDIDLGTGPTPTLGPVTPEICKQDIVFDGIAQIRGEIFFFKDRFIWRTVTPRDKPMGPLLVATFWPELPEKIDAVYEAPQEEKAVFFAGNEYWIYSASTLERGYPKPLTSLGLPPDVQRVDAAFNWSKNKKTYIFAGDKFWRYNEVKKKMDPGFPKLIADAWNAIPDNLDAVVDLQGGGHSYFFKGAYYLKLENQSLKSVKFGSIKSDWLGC
Chain of Disintegrin and metalloproteinase domain-containing protein 17 (O77636 whole entry, the tested form may be a part): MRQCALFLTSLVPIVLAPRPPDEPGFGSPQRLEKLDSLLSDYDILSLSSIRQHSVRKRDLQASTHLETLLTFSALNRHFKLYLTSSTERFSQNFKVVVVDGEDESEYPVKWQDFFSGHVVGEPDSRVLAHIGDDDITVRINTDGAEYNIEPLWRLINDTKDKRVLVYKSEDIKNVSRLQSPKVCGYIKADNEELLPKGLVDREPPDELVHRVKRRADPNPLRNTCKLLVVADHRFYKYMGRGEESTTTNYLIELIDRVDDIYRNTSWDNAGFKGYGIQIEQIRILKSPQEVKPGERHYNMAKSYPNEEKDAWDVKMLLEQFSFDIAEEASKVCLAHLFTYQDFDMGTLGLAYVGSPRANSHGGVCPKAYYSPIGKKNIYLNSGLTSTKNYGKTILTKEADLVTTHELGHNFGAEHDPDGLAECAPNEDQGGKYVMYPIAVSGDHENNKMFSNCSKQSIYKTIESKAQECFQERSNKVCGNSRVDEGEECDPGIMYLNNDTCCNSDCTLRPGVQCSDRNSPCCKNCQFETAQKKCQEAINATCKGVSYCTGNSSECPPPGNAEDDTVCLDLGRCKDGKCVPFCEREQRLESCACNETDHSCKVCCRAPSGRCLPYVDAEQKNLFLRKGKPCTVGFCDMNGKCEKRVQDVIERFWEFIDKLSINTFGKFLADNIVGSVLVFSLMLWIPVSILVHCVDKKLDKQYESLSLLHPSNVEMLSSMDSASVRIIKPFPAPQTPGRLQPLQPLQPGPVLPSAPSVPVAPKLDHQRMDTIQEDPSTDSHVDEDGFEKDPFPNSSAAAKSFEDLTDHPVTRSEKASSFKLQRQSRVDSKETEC

| SMILES | Ki [1] [µM] | Ki [2] [µM] | IC50 [3] [µM] | inhibition [4] [%] | Ki [5] [µM] | Ki [6] [µM] | IC50 [7] [µM] | Ki [8] [µM] | Ki [9] [µM] | Ki [10] [µM] |
| --- | --- | --- | --- | --- | --- | --- | --- | --- | --- | --- |
| Cc1cc(COc2ccc(C(=O)NC3CN(C(=O)OC(C)(C)C)CC34C(=O)NC(=O)NC4=O)cc2)c2ccccc2n1 (centres undefined) | > 6.37 | > 5.21 | 14 | 44 | > 3.33 | 1.03 | 0.128 | > 4.5 | – | – |
| CC(=O)N1CC(NC(=O)c2ccc(OCc3cc(C)nc4ccccc34)cc2)C2(C1)C(=O)NC(=O)NC2=O (centres undefined) | > 6.37 | 3.95 | 14 | 44 | > 3.33 | 0.58 | 0.055 | > 4.5 | – | – |
| Cc1cc(COc2ccc(C(=O)NCC3(C)C(=O)NC(=O)NC3=O)cc2)c2ccccc2n1 | > 6.37 | > 5.02 | – | 0 | > 3.33 | > 6.02 | 0.026 | > 4.5 | > 4.95 | > 2.13 |
| Cc1cc(COc2ccc(C(=O)NC3CN(C(=O)c4cccnc4)CC34C(=O)NC(=O)NC4=O)cc2)c2ccccc2n1 (centres undefined) | > 6.37 | 1.31 | 18.4 | 17 | > 3.33 | 0.13 | 0.029 | > 4.5 | – | – |
| Cc1cc(COc2ccc(C(=O)NC3COCC34C(=O)NC(=O)NC4=O)cc2)c2ccccc2n1 (centres undefined) | > 6.37 | 3.53 | 50 | 12 | > 3.33 | > 4.04 | 0.044 | > 4.5 | – | – |
| Cc1cc(COc2ccc(C(=O)NC3CN(S(C)(=O)=O)CC34C(=O)NC(=O)NC4=O)cc2)c2ccccc2n1 (centres undefined) | > 6.37 | 3.72 | 12.6 | 26 | > 3.33 | 1.29 | 0.036 | > 4.5 | – | – |

Source: ChEMBL document CHEMBL1138371, “Discovery of low nanomolar non-hydroxamate inhibitors of tumor necrosis factor-alpha converting enzyme (TACE)” (Bioorg Med Chem Lett, 2007)
